According to US20080227798A1, “POLYMORPHS OF SUCCINATE SALT OF 2-[6-(3-AMINO-PIPERIDIN-1-YL)-3-METHYL-2,4-DIOXO-3,4-DIHYDRO-2H-PYRIMIDIN-1-YLMETHY]-4-FLUOR-BENZONITRILE AND METHODS OF USE THEREFOR” (priority 2006, published 2008):
Entries after “also recorded” stand apart in the source; their conditions may differ. Values belong to the molecule of their own block, whether it stands above or below them.

Columns and labels:
Assay type in all cases: physicochemical
[1] = Moisture sorption/desorption analysis; conditions: for form by XRPD of the material remaining after the moisture sorption/desorption analysis: post moisture sorption/desorption
Experimental: Moisture sorption/desorption data were collected on a VTI SGA-100 Vapor Sorption Analyzer. Sorption and desorption data were collected over a range of 5% to 95% relative humidity (RH) at 10% RH intervals under a nitrogen purge. Samples were not dried prior to analysis. Equilibrium criteria used for analysis were less than 0.0100% weight change in 5 minutes, with a maximum equilibration time of 3 hours if the weight criterion was not met. Data were not corrected for the initial moisture content of the samples. NaCl and PVP were used as calibration standards. Moisture sorption and desorption study was conducted on a sample of Form A+B. The sample was prepared by crashed cooling crystallization (Example 3, section A.6) of the polymorphic forms from a ethanol:water (95:5) solution of Compound I. The moisture sorption and desorption study was conducted according to the procedures outlined in Example 3, section B.10. The data collected is plotted in FIG. 13 and summarized in Table L. Moisture sorption and desorption study was conducted on a sample of Form E. The sample was prepared by solvent/antisolvent crystallization (Example 3, section A.7) by the addition of acetonitrile to Compound I in water. The moisture sorption and desorption study was conducted according to the procedures outlined in Example 3, section B.10. The data collected is plotted in FIG. 23 and summarized in Table M. Moisture sorption and desorption study was conducted on a sample of Amorphous Form. The sample was prepared by lyophilolization of a solution of Compound I in water (Example 3, section A.9). The moisture sorption and desorption study was conducted according to the procedures outlined in Example 3, section B.10.

[2] = Vapor stress of amorphous solid
Experimental: Amorphous Compound I was placed in acetone, ethanol, and water vapor chambers for up to eight days. The solids were collected and analyzed by XRPD for form identification.
Solids of Amorphous Form of Compound I were stressed in acetone and ethanol vapor stress chambers for 4 days. Other aliquots of the solids were stressed in a water vapor chamber for 4 days and 8 days. The remaining solids were analyzed by XRPD.

[3] = Thermogravimetric analysis (TGA); conditions: from 25° C. to 95° C.
Experimental: Thermogravimetric (TG) analyses were performed using a TA Instruments 2950 thermogravimetric analyzer. Each sample was placed in an aluminum sample pan and inserted into the TG furnace. The furnace was first equilibrated at 25° C., then heated under nitrogen at a rate of 10° C./min, up to a final temperature of 350° C. Nickel and Alumel™ were used as the calibration standards.

[4] = Approximate solubility of Compound I in different solvents; conditions: for solubility: thermodynamic from solid, ambient temperature, approximate
Experimental: Compound I prepared by the method described in Example 1 was used for the solubility study. Solvents and other reagents were of ACS or HPLC grade and were used as received.
A weighed sample (typically about 20-25 mg) of Compound I was treated at ambient temperature with aliquots (typically ≧50 μL) of the test solvent with sonication between additions. Solvents were either reagent or HPLC grade. Solubility was estimated from the total volume of solvent used to obtain a clear solution, as determined by visual inspection. Solubility is expressed as “less than” when dissolution was not observed. If dissolution occurred after the last aliquot was added then solubility is expressed as “greater than or equal to” (≧). The actual solubilities may be greater than determined, due to over addition of solvent (large aliquots) or slow dissolution rates. Approximate solubilities of Compound I are summarized in Table A. The solubility values have been rounded to the nearest whole number and are reported to the nearest mg/mL.

[5] = Relative humidity stressing experiments; conditions: conditions not given
Description: Samples of Compound I were placed uncovered in approximately 58%, 88%, and 97% relative humidity jars. The samples were stored in the jars for approximately 8 days. The solids were collected and analyzed by XRPD for form identification. […] An aliquot of a mixture of Form A+B was stressed at 88% relative humidity for 23 days. Amorphous Form was stressed at 58% and 88% relative humidity for 23 days.

Compound: Cn1c(=O)cc(N2CCC[C@@H](N)C2)n(Cc2cc(F)ccc2C#N)c1=O.O=C(O)CCC(=O)O [Form E]
- Weight % chg ([1]; Samp RH 5.03%, 24.77° C., elapsed 730.6 min (desorption)): −1.322%
- Weight % chg ([1]; Samp RH 5.23%, 24.77° C., elapsed 138.3 min): −1.268%
- Weight % chg ([1]; Samp RH 14.89%, 24.78° C., elapsed 154.5 min (sorption)): −1.187%
- Weight % chg ([1]; Samp RH 14.94%, 24.79° C., elapsed 557.2 min (desorption)): −0.102%
- Weight % chg ([1]; Samp RH 24.87%, 24.78° C., elapsed 170.5 min (sorption)): −1.074%
- Weight % chg ([1]; Samp RH 25.02%, 24.79° C., elapsed 543.5 min (desorption)): −0.013%
- Weight % chg ([1]; Samp RH 34.83%, 24.78° C., elapsed 184.5 min (sorption)): −0.947%
- Weight % chg ([1]; Samp RH 35.13%, 24.79° C., elapsed 526.0 min (desorption)): 0.112%
- Weight % chg ([1]; Samp RH 35.22%, 24.77° C., elapsed 0.1 min (start)): 0.000%
- Weight % chg ([1]; Samp RH 44.87%, 24.78° C., elapsed 203.4 min (sorption)): −0.755%
- Weight % chg ([1]; Samp RH 45.03%, 24.78° C., elapsed 512.2 min (desorption)): 0.236%
- Weight % chg ([1]; Samp RH 55.04%, 24.79° C., elapsed 253.5 min (sorption)): −0.223%
- Weight % chg ([1]; Samp RH 55.05%, 24.78° C., elapsed 499.6 min (desorption)): 0.398%
- Weight % chg ([1]; Samp RH 65.05%, 24.78° C., elapsed 281.1 min (sorption)): 0.325%
- Weight % chg ([1]; Samp RH 65.16%, 24.78° C., elapsed 487.4 min (desorption)): 0.616%
- Weight % chg ([1]; Samp RH 74.87%, 24.78° C., elapsed 301.2 min (sorption)): 0.608%
- Weight % chg ([1]; Samp RH 75.25%, 24.78° C., elapsed 471.9 min (desorption)): 0.949%
- Weight % chg ([1]; Samp RH 84.67%, 24.79° C., elapsed 322.2 min (sorption)): 1.410%
- Weight % chg ([1]; Samp RH 85.18%, 24.77° C., elapsed 452.4 min (desorption)): 1.632%
- Weight % chg ([1]; Samp RH 94.73%, 24.78° C., elapsed 415.8 min (sorption)): 4.216%
- weight loss on equilibration at 5% relative humidity ([1]; equilibration at 5% RH): 1.3%
- form by XRPD of the material remaining after the moisture sorption/desorption analysis [1]: a mixture of Form A and Form E; also recorded: A + small quantity of E

Compound: Cn1c(=O)cc(N2CCC[C@@H](N)C2)n(Cc2ccccc2C#N)c1=O.O=C(O)CCC(=O)O [Amorphous Solid of Compound I]
- Color/morphology after vapor stress ([2]; Acetone vapor, 4 days): off white, irregular
- Color/morphology after vapor stress ([2]; EtOH vapor, 4 days): off white, irregular
- Color/morphology after vapor stress ([2]; Water vapor, 4 days): off white, irregular,
- Form after vapor stress (XRPD) ([2]; Water vapor, 4 days): A + D
- Color/morphology after vapor stress ([2]; Water vapor, 8 days): white, irregular,
- Form after vapor stress (XRPD) ([2]; Water vapor, 8 days): low

Compound: Cn1c(=O)cc(N2CCC[C@@H](N)C2)n(Cc2ccccc2C#N)c1=O.O=C(O)CCC(=O)O [Amorphous Form]
- weight lost on desorption ([1]; 95-5% RH): Approximately 4.7%
- Weight % chg ([1]; Samp RH 4.97%, 25.05° C., elapsed 1278.0 min (desorption)): −1.269%
- Weight % chg ([1]; Samp RH 5.09%, 25.06° C., elapsed 84.0 min): −0.975%
- Weight % chg ([1]; Samp RH 14.98%, 25.06° C., elapsed 113.6 min (sorption)): −0.589%
- Weight % chg ([1]; Samp RH 15.06%, 25.04° C., elapsed 1243.6 min (desorption)): −1.148%
- Weight % chg ([1]; Samp RH 24.92%, 25.05° C., elapsed 158.4 min (sorption)): −0.166%
- Weight % chg ([1]; Samp RH 25.13%, 25.05° C., elapsed 1210.7 min (desorption)): −1.026%
- Weight % chg ([1]; Samp RH 34.90%, 25.04° C., elapsed 277.5 min (sorption)): 0.841%
- Weight % chg ([1]; Samp RH 35.06%, 25.05° C., elapsed 1179.2 min (desorption)): −0.912%
- Weight % chg ([1]; Samp RH 41.98%, 25.04° C., elapsed 0.1 min (start)): 0.000%
- Weight % chg ([1]; Samp RH 45.05%, 25.03° C., elapsed 392.7 min (sorption)): 2.393%
- Weight % chg ([1]; Samp RH 45.07%, 25.05° C., elapsed 1144.4 min (desorption)): −0.776%
- Weight % chg ([1]; Samp RH 54.99%, 25.02° C., elapsed 470.8 min (sorption)): 4.540%
- Weight % chg ([1]; Samp RH 55.11%, 25.04° C., elapsed 1092.3 min (desorption)): −0.545%
- Weight % chg ([1]; Samp RH 64.90%, 25.02° C., elapsed 508.0 min (sorption)): 6.988%
- Weight % chg ([1]; Samp RH 65.07%, 25.03° C., elapsed 1039.8 min (desorption)): −0.280%
- Weight % chg ([1]; Samp RH 74.82%, 25.02° C., elapsed 654.6 min (sorption)): 0.437%
- Weight % chg ([1]; Samp RH 74.92%, 25.02° C., elapsed 957.5 min (desorption)): 0.176%
- Weight % chg ([1]; Samp RH 84.78%, 25.03° C., elapsed 703.8 min (sorption)): 0.922%
- Weight % chg ([1]; Samp RH 85.31%, 25.02° C., elapsed 877.9 min (desorption)): 1.010%
- Weight % chg ([1]; Samp RH 94.59%, 25.02° C., elapsed 806.9 min (sorption)): 3.400%
- Post MB XRPD (form after moisture sorption/desorption analysis) ([1]; after moisture sorption/desorption): Crystalline, Form A (FIG. 31)
- weight lost on sorption ([1]; at 75% relative humidity): Approximately 7%
- weight loss on equilibration at 5% relative humidity ([1]; equilibration at 5% RH): 1.0%
- weight lost on equilibration ([1]; equilibration at 5% RH): 1.0% weight lost on equilibration at 5% RH,
- weight gain ([1]; from 5-95% RH): 4.4%
- weight gain on sorption ([1]; from 75% to 95% relative humidity): 4.4%
- weight lost ([1]; from 95-5% RH): 4.7%
- form by XRPD of the material remaining after the moisture sorption/desorption analysis [1]: Form A; also recorded: low crystallinity A
- weight gained on sorption ([1]; up to 65% relative humidity): Approximately 8%
- TGA weight loss [3]: 1.8%
- TGA weight loss ([3]; lyophilized from Compound I in water): 1.8% weight loss from 25 °C to 95 °C

- solubility ([4]; 2-propanol:water (88:12), organic solvent or mixture, IPA:H2O (88:12)): 11000 µg/mL
- solubility ([4]; acetonitrile:water (85:15), organic solvent or mixture, ACN:H2O (85:15)): 101000 µg/mL
- solubility ([4]; diethyl ether, organic solvent or mixture, di-Ethyl ether): < 1000 µg/mL
- solubility ([4]; ethanol:water (95:5), organic solvent or mixture, EtOH:H2O (95:5)): 5000 µg/mL
- Solubility (in words) ([4]; most solvents, except DMF, methanol, TFE, water and water:solvent mixtures): Poor solubility
- solubility ([4]; organic solvent or mixture, 1,4-Dioxane): < 1000 µg/mL
- solubility ([4]; organic solvent or mixture, 2-Propanol (IPA)): < 1000 µg/mL
- solubility ([4]; organic solvent or mixture, Acetone): 2000 µg/mL
- solubility ([4]; organic solvent or mixture, Acetonitrile (ACN)): < 1000 µg/mL
- solubility ([4]; organic solvent or mixture, Dichloromethane (DCM)): < 1000 µg/mL
- solubility ([4]; organic solvent or mixture, Dimethyl Formamide (DMF)): 68000 µg/mL
- solubility ([4]; organic solvent or mixture, Ethanol (EtOH)): 2000 µg/mL
- solubility ([4]; organic solvent or mixture, Ethyl Acetate (EtOAc)): < 1000 µg/mL
- solubility ([4]; organic solvent or mixture, Hexanes): < 1000 µg/mL
- solubility ([4]; organic solvent or mixture, Methanol (MeOH)): 20000 µg/mL
- solubility ([4]; organic solvent or mixture, Tetrahydrofuran (THF)): < 1000 µg/mL
- solubility ([4]; organic solvent or mixture, Toluene): < 1000 µg/mL
- solubility ([4]; organic solvent or mixture, Trifluoroethanol (TFE)): > 200000 µg/mL
- solubility ([4]; Water (H2O)): 51000 µg/mL
Compound: Cn1c(=O)cc(N2CCC[C@@H](N)C2)n(Cc2cc(F)ccc2C#N)c1=O [Compound I, 2-[6-(3-amino-piperidin-1-yl)-3-methyl-2,4-dioxo-3,4-dihydro-2H-pyrimidin-1-ylmethyl]-4-fluoro-benzonitrile succinate]

Compound: Cn1c(=O)cc(N2CCC[C@@H](N)C2)n(Cc2cc(F)ccc2C#N)c1=O.O=C(O)CCC(=O)O [Form B]
- form change in additional relative humidity stressing studies [5]: converted to Form A
